Tests used:
Format in all cases: ADME, organism-based
[1] = system: Homo sapiens; assay: AUC (0 to 24 hrs) in healthy human subjects assessed as simvastatin acid at 40 mg with 200 ml grape fruit juice drug administered as single dose on day 3 of grape fruit juice challenge measured upto 24 hrs by LC-MS analysis; parameters: time < 24 hr, dose 40 mg; conditions: in vivo
[2] = system: Homo sapiens; assay: Cmax in healthy human subjects assessed as simvastatin acid at 40 mg with 200 ml grape fruit juice drug administered as single dose on day 3 of grape fruit juice challenge measured upto 24 hrs by LC-MS analysis; parameters: dose 40 mg; conditions: in vivo
[3] = Elimination half life in healthy human subjects at 40 mg with water administered as single dose measured upto 24 hrs by LC-MS analysis; conditions: in vivo, oral, read-out: beta t1/2 (converted)
[4] = Cmax in healthy human subjects at 40 mg with 200 ml grape fruit juice drug administered as single dose on day 3 of grape fruit juice challenge measured upto 24 hrs by LC-MS analysis; parameters: dose 40 mg; conditions: in vivo, oral
[5] = Elimination half life in healthy human subjects at 40 mg with 200 ml grape fruit juice drug administered as single dose on day 3 of grape fruit juice challenge measured upto 24 hrs by LC-MS analysis; conditions: in vivo, oral, read-out: beta t1/2 (converted)
[6] = Cmax in healthy human subjects at 40 mg with water administered as single dose measured upto 24 hrs by LC-MS analysis; parameters: dose 40 mg; conditions: in vivo, oral
[7] = AUC (0 to 24 hrs) in healthy human subjects at 40 mg with water administered as single dose measured upto 24 hrs by LC-MS analysis; parameters: time < 24 hr, dose 40 mg; conditions: in vivo, oral
[8] = system: Homo sapiens; assay: AUC (0 to 24 hrs) in healthy human subjects assessed as simvastatin acid at 40 mg with water administered as single dose measured upto 24 hrs by LC-MS analysis; parameters: dose 40 mg, time < 24 hr; conditions: in vivo, po
[9] = system: Homo sapiens; assay: Cmax in healthy human subjects assessed as simvastatin acid at 40 mg with water administered as single dose measured upto 24 hrs by LC-MS analysis; parameters: dose 40 mg; conditions: in vivo, po
[10] = AUC (0 to 24 hrs) in healthy human subjects at 40 mg with 200 ml grape fruit juice drug administered as single dose on day 3 of grape fruit juice challenge measured upto 24 hrs by LC-MS analysis; parameters: dose 40 mg, time < 24 hr; conditions: in vivo, oral
[11] = system: Homo sapiens; assay: Elimination half life in healthy human subjects assessed as simvastatin acid at 40 mg with 200 ml grape fruit juice drug administered as single dose on day 3 of grape fruit juice challenge measured upto 24 hrs by LC-MS analysis; conditions: in vivo
[12] = system: Homo sapiens; assay: Elimination half life in healthy human subjects assessed as simvastatin acid at 40 mg with water administered as single dose measured upto 24 hrs by LC-MS analysis; conditions: in vivo

AUC [1]: 62 ng·h/mL
Cmax [2]: 11.1 ng/mL
half-life [3]: 2.7 h
Cmax [4]: 28.5 ng/mL
half-life [5]: 2 h
Cmax [6]: 7.3 ng/mL
AUC(0-t) at 24 h [7]: 31.6 ng·h/mL
AUC [8]: 18.5 ng·h/mL
Cmax [9]: 2.6 ng/mL
AUC(0-t) at 24 h [10]: 112 ng·h/mL
beta t1/2 [11]: 2.4 h
beta t1/2 [12]: 2.9 h
Compound: CCC(C)(C)C(=O)O[C@H]1C[C@@H](C)C=C2C=C[C@H](C)[C@H](CC[C@@H]3C[C@@H](O)CC(=O)O3)[C@H]21 [SIMVASTATIN]

Reference: ChEMBL document CHEMBL3785024 (Br J Clin Pharmacol, 2004)
